Measured values from patent US20250276955A1, “CORONAVIRUS MAIN PROTEASE INHIBITORS AND METHODS USING SAME” (Baylor College of Medicine, priority 2021, published 2025).
“Also recorded” adds a separate entry of the source.

Key:
[1] = Plasma stability assay, mouse plasma; type: in vitro ADME; settings: 10 μM, 37° C., after 2 h incubation
Method: (§1) Compound CDD-1713 and CDD-1976 were incubated in human and mouse plasma respectively at a concentration of 10 μM in duplicate (n=2) at 37° C. At time-points of 0, 30, 60 and 120 min, 15 μL of sample were taken out and the reactions terminated by adding 75 μL of ice-cold methanol. The reaction mixtures were then vortexed for 30 sec and centrifuged at rcf 15,000 for 15 min. Following centrifugation, 3 μL of the supernatant was analyzed using UHPLC-Q Exactive Orbitrap MS. The percentage of test compound remaining at the individual time points relative to the 0 min sample was then determined.

SARS-COV-2 M^pro-His6 = SARS-COV-2 M^pro-His6 (Severe acute respiratory syndrome coronavirus 2, UniProt P0DTD1); assay: biochemical; type: biochemical; settings: 25 nM enzyme, 15 μM fluorescent peptide, Morrison equation; Inactive = less than 50% inhibition at 25 μM compound; read-out: M^pro-His Ki
[2] = molecular target: SARS-COV-2 M^pro (authentic N- and C-termini) (Severe acute respiratory syndrome coronavirus 2, UniProt P0DTD1); assay: biochemical; type: biochemical
[3] = system: SARS-COV-2 (USA_WA1/2020 isolate) in VERO E6 cells; assay: Real-Time Cell Analysis (RTCA) assay of SARS-COV-2 replication; type: cell-based
HepG2 cells [4] = assay: HepG2 cytotoxicity assay (XTT); settings: 100 μM
[5] = Metabolic stability in human liver microsomes; type: in vitro ADME
Method: (§2) The samples were collected at specific time-points 0, 30, and 60 min in duplicate. The reactions were terminated by adding an equivalent volume of ice-cold methanol and vortexed. […] Three μL of the supernatant was analyzed by UHPLC-Q Exactive Orbitrap MS (Thermo Fisher Scientific, USA) equipped with 50 mm×4.6 mm column (XDB C-18, Agilent Technologies, USA). The column temperature was maintained at 40° C. The flow rate was at 0.3 mL/min with a 30% mobile phase (acetonitrile containing 0.1% formic acid). Q Exactive MS was operated in positive mode with electrospray ionization. Ultra-pure nitrogen was applied as the sheath (45 arbitrary unit), auxiliary (10 arbitrary unit), sweep (1.0 arbitrary unit) and the collision gas. […] MS data were acquired from 80 to 1,200 Da in profile mode.

HepG2 cells [6] = assay: HepG2 cell uptake assay; type: in vitro ADME; settings: 10 μM, 2 hours
Method: The HepG2 cells maintained in DMEM (containing 1 g/L glucose, 10% fetal bovine serum and 1% penicillin/streptomycin) were seeded in a 12-well plate (a final density of 5×10^5/well) for cell uptake assay and 96-well plate for cytotoxicity assay (a final density of 5×10^4/well). The plate was incubated at 37° C. for 24 h.
The cells in 12-well plate were treated with CDD-1713 or CDD-1976 (final concentration: 10 μM). The plate was incubated at 37° C. for another 2 hr. The medium in the plate was decanted and the cells were rinsed with 1 mL of 1×DPBS for three times. 0.5 mL of 0.25% Trypsin was added into each well and incubated for 3.5 min (at 37° C.). 1 mL of complete medium was added into each well to quench the reaction. After spinning at 350×g for 5 min, the cell pellet was reconstituted in MeOH/H2O (v/v 1/1) and CDD-1713 or CDD-1976 was extracted from 100 μL of the resulting mixture with 100 μL of ice-cold methanol. The mixtures were centrifuged at rcf 15,000 for 15 min. Three μL of the supernatant was analyzed by UHPLC-Q Exactive Orbitrap MS (Thermo Fisher Scientific, USA) equipped with 50 mm×4.6 mm column (XDB C-18, Agilent Technologies, USA). The column temperature was set at 40° C. Ultra-pure nitrogen was applied as the sheath (45 arbitrary unit), auxiliary (10 arbitrary unit), sweep (1.0 arbitrary unit) and the collision gas. […]

[7] = molecular target: SARS-CoV-2 main protease (M^pro) (Severe acute respiratory syndrome coronavirus 2, UniProt P0DTD1); assay: Protein thermal shift stability assay (SYPRO Orange); type: binding
[8] = Metabolic stability in mouse liver microsomes; type: in vitro ADME; settings: 0.5 mg protein/mL, 2.0 μM compound, 1.0 mM NADPH
Method: as §2

[9] = Plasma stability assay, human plasma; type: in vitro ADME; settings: 10 μM, 37° C., after 2 h incubation
Method: as §1

CN(C)C(=O)COc1ccc(-c2cccc3[nH]ncc23)cc1C=O [CDD-1976]
compound remaining in mouse plasma [1]: 80% | Ki (SARS-COV-2 M^pro-His6): 37 ± 4 nM | M^pro inhibition (in words) [2]: better inhibition compared to CDD-1713 | Ki ([2]; 25 nM enzyme, 15 μM fluorescent peptide, Morrison equation, Inactive = less than 50% inhibition at 25 μM compound, read-out: M^pro Ki): 42 ± 5 nM | IC50 ([3]; Severe acute respiratory syndrome coronavirus 2, Vero C1008, 75 h, read-out: IC50, inhibition of SARS-COV-2 induced cell death (RTCA)): 2500 nM | prevention of SARS-COV-2 induced cell death (in words) ([3]; VERO E6 cells, 75 h): reduced cell death in a dose-dependent manner | cytotoxicity in HepG2 cells (in words) (HepG2 cells [4]): no obvious cytotoxicity | HLM t1/2 (half-life) ([5]; 0.5 mg protein/mL, 2.0 μM compound, 1.0 mM NADPH): 41.4 | metabolic stability in human liver microsomes (in words) ([5]; human, microsomes): more stable | cell permeability in HepG2 uptake assay (in words) (HepG2 cells [6]): moderate cell permeability | stabilization of M^pro in thermal shift assay (in words) [7]: stabilized; also recorded: concentration-dependent stabilization; also recorded: most pronounced temperature shift | MLM t1/2 (half-life) [8]: 10.2 | compound remaining in human plasma [9]: 80%
